ChEMBL document CHEMBL1201862, “PubChem BioAssay data set” (2004)
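A five-concentration, 48-hour dose response in 96-well plates underlies each endpoint, interpolated linearly between surrounding concentrations. Here, GI50 denotes the concentration required for 50% inhibition of growth.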 The source made the active and inactive calls. No stated cut-off is given here; in the data, active = GI50 up to about 1.1 µM and inactive = higher.

Legend:
Assay in all cases: NCI tumour cell line growth inhibition, 48 h
Malme-3M = test system: Malme-3M
OVCAR-5 = test system: OVCAR-5
SR = test system: SR
A549 = test system: A549
MDA-MB-435 = test system: MDA-MB-435
HOP-62 = test system: HOP-62
HT-29 = test system: HT-29
K562 = test system: K562
MCF7 = test system: MCF7
DU-145 = test system: DU-145
KM12 = test system: KM12
SNB-19 = test system: SNB-19
CCRF-CEM = test system: CCRF-CEM
BT-549 = test system: BT-549
OVCAR-3 = test system: OVCAR-3
OVCAR-4 = test system: OVCAR-4
UACC-257 = test system: UACC-257
NCI/ADR-RES = test system: NCI/ADR-RES
HOP-92 = test system: HOP-92

Measured: GI50

O=C(O)CCn1cnc2c(S)ncnc21
inactive: Malme-3M > 100 µM | OVCAR-5 > 100 µM | SR > 100 µM | A549 > 100 µM | MDA-MB-435 > 100 µM | HOP-62 > 100 µM | HT-29 > 100 µM | K562 > 100 µM | MCF7 > 100 µM | DU-145 > 100 µM | KM12 > 100 µM | SNB-19 > 100 µM | CCRF-CEM > 100 µM | BT-549 > 100 µM | OVCAR-3 > 100 µM | OVCAR-4 > 100 µM | UACC-257 > 100 µM | NCI/ADR-RES > 100 µM

CCCn1c(=O)c2ccccc2[n+]2c(-c3ccc([N+](=O)[O-])cc3)csc12
inactive: OVCAR-5 17.8 µM | HOP-92 32.4 µM | A549 47 µM | MDA-MB-435 38.6 µM | HOP-62 18.9 µM | HT-29 25 µM | K562 20.9 µM | MCF7 29.9 µM | DU-145 38.9 µM | KM12 18.8 µM | SNB-19 25.7 µM | CCRF-CEM 27.2 µM | BT-549 33.9 µM | OVCAR-4 17.9 µM | UACC-257 27.7 µM | NCI/ADR-RES 7.67 µM

COc1ccccc1/N=N/C(=N/NC(=O)c1ccc(C)cc1)c1ccc(N(CCC#N)CCC#N)cc1OC
inactive: Malme-3M 38.1 µM | OVCAR-5 > 100 µM | HOP-92 27.4 µM | A549 33.5 µM | MDA-MB-435 29.1 µM | HOP-62 40.5 µM | HT-29 33.1 µM | K562 31.3 µM | MCF7 13.4 µM | DU-145 40.8 µM | KM12 26.8 µM | SNB-19 30.8 µM | CCRF-CEM 18.6 µM | BT-549 32.3 µM | OVCAR-3 29 µM | OVCAR-4 31.9 µM | UACC-257 38.3 µM | NCI/ADR-RES > 100 µM

COc1ccc(/C=C2/SC(c3ccc(Cl)cc3)N(NC(=O)CCCCCCCCC(=O)NN3C(=O)/C(=C\c4ccc(OC)c(OC)c4)SC3c3ccc(Cl)cc3)C2=O)cc1OC (configuration not stated)
inactive: OVCAR-5 87.1 µM | SR > 100 µM | HOP-92 18.8 µM | A549 64.3 µM | MDA-MB-435 42 µM | HOP-62 25.8 µM | HT-29 > 100 µM | K562 78.3 µM | MCF7 > 100 µM | DU-145 > 100 µM | KM12 55.3 µM | SNB-19 50.2 µM | BT-549 > 100 µM | OVCAR-3 60 µM | OVCAR-4 > 100 µM | UACC-257 54.3 µM | NCI/ADR-RES > 100 µM

C=CCCCCCCCCCOC1C=CC(O)C(CO)O1 (configuration not stated)
inactive: Malme-3M 28.1 µM | OVCAR-5 68.4 µM | HOP-92 33.5 µM | A549 42.4 µM | MDA-MB-435 35.5 µM | HOP-62 50.5 µM | HT-29 22.6 µM | K562 20.6 µM | MCF7 41.4 µM | DU-145 95.3 µM | KM12 27.2 µM | SNB-19 54.8 µM | BT-549 48.4 µM | OVCAR-3 38 µM | OVCAR-4 46.6 µM | UACC-257 23.7 µM | NCI/ADR-RES 43.6 µM

CC(=O)OC(Cc1c(O)c2c(C)cccc2oc1=O)C(C)(C)O (configuration not stated)
inactive: Malme-3M > 100 µM | OVCAR-5 > 100 µM | SR 55.1 µM | A549 > 100 µM | MDA-MB-435 > 100 µM | HOP-62 > 100 µM | HT-29 > 100 µM | K562 > 100 µM | MCF7 > 100 µM | DU-145 > 100 µM | KM12 > 100 µM | SNB-19 > 100 µM | CCRF-CEM 88.5 µM | BT-549 > 100 µM | OVCAR-3 > 100 µM | UACC-257 > 100 µM | NCI/ADR-RES 92.3 µM

CC(C)(O)/C1=C/C=C/CCCCCCCCCC1
inactive: Malme-3M > 100 µM | OVCAR-5 > 100 µM | SR 34 µM | HOP-92 81.3 µM | MDA-MB-435 > 100 µM | HOP-62 > 100 µM | HT-29 > 100 µM | K562 37.8 µM | MCF7 > 100 µM | DU-145 > 100 µM | KM12 > 100 µM | SNB-19 > 100 µM | CCRF-CEM 30.3 µM | BT-549 > 100 µM | OVCAR-3 > 100 µM | UACC-257 > 100 µM | NCI/ADR-RES > 100 µM

Nc1ccc(S(=O)(=O)C23CC4CC(CC(C4)C2)C3)cc1
inactive: Malme-3M > 100 µM | OVCAR-5 > 100 µM | SR 61.7 µM | A549 > 100 µM | MDA-MB-435 72.9 µM | HOP-62 > 100 µM | HT-29 > 100 µM | K562 89.5 µM | MCF7 > 100 µM | DU-145 78 µM | KM12 > 100 µM | SNB-19 > 100 µM | CCRF-CEM 49.8 µM | BT-549 > 100 µM | OVCAR-3 77.8 µM | UACC-257 > 100 µM | NCI/ADR-RES > 100 µM

CO/C=C(/C(=O)OC)c1ccccc1Oc1c(F)c(F)c(F)c(F)c1F
inactive: OVCAR-5 > 100 µM | HOP-92 19.6 µM | A549 34.8 µM | MDA-MB-435 29.7 µM | HOP-62 53.6 µM | HT-29 32.4 µM | K562 38.7 µM | MCF7 38.2 µM | DU-145 33 µM | KM12 24 µM | SNB-19 57.4 µM | CCRF-CEM 30.1 µM | BT-549 > 100 µM | OVCAR-3 21.3 µM | OVCAR-4 24.4 µM | UACC-257 24.9 µM | NCI/ADR-RES 40.7 µM

C=C(C)COC1CCCCO1 (configuration not stated)
inactive: Malme-3M > 100 µM | OVCAR-5 > 100 µM | SR > 10 µM | A549 > 100 µM | MDA-MB-435 > 100 µM | HOP-62 > 100 µM | HT-29 > 100 µM | K562 41.6 µM | MCF7 > 100 µM | DU-145 > 100 µM | KM12 > 100 µM | SNB-19 > 100 µM | CCRF-CEM > 100 µM | BT-549 > 100 µM | OVCAR-3 > 100 µM | UACC-257 > 100 µM | NCI/ADR-RES > 100 µM

CC(C)(C)OC(=O)C1=C(C(=O)OC(C)(C)C)SC2(S1)C(C(=O)OC(C)(C)C)=C(C(=O)OC(C)(C)C)Sc1c2ssc1=O
inactive: Malme-3M > 100 µM | OVCAR-5 59.8 µM | HOP-92 > 100 µM | A549 72.3 µM | MDA-MB-435 27.5 µM | HOP-62 64.9 µM | HT-29 86.5 µM | K562 41.3 µM | MCF7 49.2 µM | DU-145 31 µM | KM12 > 100 µM | SNB-19 > 100 µM | CCRF-CEM 18.1 µM | BT-549 67 µM | OVCAR-3 48.2 µM | OVCAR-4 24.6 µM | UACC-257 > 100 µM | NCI/ADR-RES > 100 µM

CC(=O)OC(OC(C)=O)c1ccc2ccc3cccc4ccc1c2c34
inactive: Malme-3M 12.3 µM | OVCAR-5 20 µM | SR 21 µM | HOP-92 17.9 µM | A549 > 100 µM | MDA-MB-435 18.9 µM | HT-29 18 µM | K562 38.7 µM | MCF7 23.6 µM | DU-145 21 µM | KM12 9.77 µM | SNB-19 19.5 µM | CCRF-CEM 42.6 µM | BT-549 25.1 µM | OVCAR-3 26.7 µM | UACC-257 17.1 µM | NCI/ADR-RES 31.3 µM

CC1=C(C(=O)NCCc2ccccc2)CC(C(=O)NCCc2ccccc2)=C(C)N1
inactive: OVCAR-5 > 100 µM | HOP-92 49.3 µM | A549 > 100 µM | MDA-MB-435 > 100 µM | HOP-62 75.3 µM | HT-29 61.1 µM | K562 44.3 µM | MCF7 > 100 µM | DU-145 > 100 µM | KM12 38.3 µM | SNB-19 6.1 µM | CCRF-CEM 27.8 µM | BT-549 > 100 µM | OVCAR-3 88.3 µM | OVCAR-4 > 100 µM | UACC-257 > 100 µM | NCI/ADR-RES > 100 µM

O=C(O)Cc1cccc2c1OC(c1ccccc1)C(Cl)(C(=O)c1ccccc1)C2=O (configuration not stated)
inactive: Malme-3M 18.2 µM | SR 20.4 µM | A549 29.4 µM | MDA-MB-435 15.8 µM | HOP-62 20.3 µM | HT-29 16.4 µM | K562 5.52 µM | MCF7 6.01 µM | DU-145 24.4 µM | KM12 18.5 µM | SNB-19 40.1 µM | CCRF-CEM 3.21 µM | BT-549 43 µM | OVCAR-3 17.7 µM | UACC-257 15.3 µM | NCI/ADR-RES 22.2 µM

C=C1C(=O)O[C@H]2C[C@@]3(COC(C)=O)C=COC=C(COC(=O)C(C)C)C3CC12 (some centres not stated)
inactive: Malme-3M > 100 µM | OVCAR-5 > 100 µM | SR 25.9 µM | A549 > 100 µM | MDA-MB-435 73.5 µM | HOP-62 > 100 µM | HT-29 > 100 µM | K562 31.6 µM | MCF7 52.4 µM | DU-145 > 100 µM | KM12 > 100 µM | SNB-19 > 100 µM | CCRF-CEM 24 µM | BT-549 > 100 µM | OVCAR-3 > 100 µM | UACC-257 > 100 µM | NCI/ADR-RES > 100 µM

O=C1/C(=C/c2ccc(Cl)cc2)Oc2ccccc21
inactive: SR 51.2 µM | A549 18.7 µM | MDA-MB-435 79.3 µM | HOP-62 22.3 µM | HT-29 > 100 µM | K562 > 100 µM | MCF7 30.2 µM | DU-145 19.7 µM | KM12 32.4 µM | SNB-19 37 µM | CCRF-CEM > 100 µM | BT-549 25.6 µM | OVCAR-3 > 100 µM | OVCAR-4 46.5 µM | UACC-257 64.7 µM | NCI/ADR-RES > 10 µM
